US12134784B2, “Method for preparing intestinal tract cell layer derived from pluripotent stem cell” (PUBLIC UNIVERSITY CORPORATION NAGOYA CITY UNIVERSITY, priority 2018, dated 2024)

What was measured:
[1] = system: human iPS cell-derived intestinal organoid; experiment: Fibrosis model using intestinal organoid (TNF-α and TGF-β addition); type: cell-based; conditions: 20 μM inhibitor with 30 ng/mL TNF-α+2 ng/mL TGF-β, 48 hours
Protocol: (A) A protocol for preparation of a fibrosis model. (B) The mRNA expression analysis of an intestinal organoid in the cases of addition of TNF-α+TGF-β and TGF-β inhibitor (SB431542, Repsox). Average±S.D. (n=3). The mRNA expression level of the control was regarded as 1.
(§1) To prepare an inflammatory bowel disease model and a fibrosis model, 30 ng/mL TNF-α and 30 ng/mL TNF-α+2 ng/mL TGF-β were added for 96 hours and 48 hours from Day 34 after completion of differentiation induction, respectively. To suppress these reactions, 100 ng/mL infliximab (anti-TNF-α antibody) for the inflammatory bowel disease model and 20 μM SB431542 or 20 μM Repsox serving as a TGF-β inhibitor, for fibrosis model were added, respectively, for the same length of time as above. Note that, to enhance the function of an intestinal organoid, PD98059, 5-aza-2′-deoxycytidine, A-83-01 and N-[(3,5-difluorophenyl) acetyl]-L-alanyl-2-phenyl-1,l-dimethylethylester-glycine (DAPT) were added from Day 19 after initiation of differentiation induction to the completion of differentiation. The addition effects in these cases were checked.
In order to reproduce fibrosis of a tissue in-vitro, which is developed by chronic inflammation in inflammatory bowel disease, TNF-α and TGF-β, each are reported as a main cause, were added for 48 hours from Day 34 after completion of differentiation induction (FIG. 8A). […]

CYP3A4 [2] = system: CYP3A4
CYP3A4 [3] = experiment: Inducibility of CYP3A4 in human intestinal organoid differentiated by using a polysaccharide polymer; conditions: VD3 1 μmol/L, 72 hours
CYP3A4 [4] = experiment: CYP3A4 metabolic activity of human intestinal organoid (midazolam, LC-MS/MS); conditions: 5 μmol/L midazolam, 24 hours; addition of ketoconazole
[5] = system: human iPS cell-derived intestinal organoid; experiment: Inflammatory bowel disease model using intestinal organoid (TNF-α addition); type: cell-based
Protocol: (A) Protocol for preparation of an inflammatory bowel disease model. (B) The mRNA expression analysis of an intestinal organoid in the cases of TNF-α and infliximab addition. Average±S.D. (n=3). The mRNA expression level of the control was regarded as 1. (C) Immunofluorescent staining of an intestinal organoid in the cases of TNF-α and infliximab addition. DAPI: Nuclear staining. Scale bar: 50 μm.
as §1
Whether an inflammatory bowel disease model can be prepared by using an intestinal organoid prepared by a new differentiation induction method was investigated by adding a main cause, i.e., an inflammatory cytokine, TNF-α, from Day 34 after completion of differentiation induction up to 96 hours (FIG. 7A). The expressions of villin and MUC2 gene decreased by addition of TNF-α; however, the expression of TNF-α increased. The decrease/increase in expression was suppressed by addition of an anti-TNF-α antibody, infliximab (FIG. 7B). Subsequently, expressions of a tight junction protein and an apoptosis marker were confirmed by immunofluorescent staining. It was observed that a tight junction structure is destroyed by addition of TNF-α. The number of cells positive to Caspase-3 increased. These changes were not found in an infliximab addition group (FIG. 7C). In inflammatory bowel disease, it is reported that an inflammatory cytokine affects in-vivo intestinal epithelial cells to destroy tight junction, with the result that the number of mucus secretory cells, i.e., goblet cells, decreases.

[6] = 30 ng/mL TNF-α, 96 hours from Day 34

Molecule: Cc1cccc(-c2[nH]ncc2-c2ccc3ncccc3n2)n1 [Repsox]
- decrease/increase in expression of fibrosis markers caused by TNF-α and TGF-β [1]: suppressed

Molecule: NC(=O)c1ccc(-c2nc(-c3ccc4c(c3)OCO4)c(-c3ccccn3)[nH]2)cc1 [SB431542]
- decrease/increase in expression of fibrosis markers caused by TNF-α and TGF-β [1]: suppressed

Molecule: C=C1/C(=C\C=C2/CCC[C@]3(C)[C@@H]([C@H](C)CCCC(C)(C)O)CC[C@@H]23)C[C@@H](O)C[C@@H]1O [activated vitamin D3, 1α, 25-dihydroxy vitamin D3]
- mRNA expression level of CYP3A4 increased (CYP3A4 [2]): about 1700 fold
- metabolic activity of midazolam (CYP3A4 [3]; 5 μmol/L midazolam, 24 hours): significantly increased
- mRNA expression of CYP3A4 (CYP3A4 [3]; compared to control group): significantly induced

Molecule: CC(=O)N1CCN(c2ccc(OCC3COC(Cn4ccnc4)(c4ccc(Cl)cc4Cl)O3)cc2)CC1 (stereo not drawn) [ketoconazole]
- midazolam's metabolic activity (CYP3A4) (CYP3A4 [4]): significantly inhibited

Molecule: TNF-α
- number of cells positive to Caspase-3 ([5]; 30 ng/mL TNF-α, 96 hours): increased
- tight junction structure (immunofluorescent staining) ([5]; 30 ng/mL TNF-α, 96 hours): destroyed
- expression of TNF-α [5, 6]: increased
- expressions of villin and MUC2 gene [5, 6]: decreased

Molecule: infliximab: anti-TNF-α antibody
- destruction of tight junction structure and increase of Caspase-3 positive cells (immunofluorescent staining) ([5]; 100 ng/mL infliximab with 30 ng/mL TNF-α, 96 hours): not found
- decrease/increase in expression (villin, MUC2, TNF-α) caused by TNF-α ([5]; 100 ng/mL infliximab with 30 ng/mL TNF-α, 96 hours from Day 34): suppressed
